The values below come from patent EP0592600B1, “PROTEINS S POLYPEPTIDES AND USES THEREOF” (THE SCRIPPS RESEARCH INSTITUTE, priority 1991, dated 1993).

Ends that are not written are not given here. Peptide text beside a SMILES is read from it.

Usually IC90 stands for the point of the concentration-response curve where the effect stands at 90%. By inhibition is commonly meant the drop in the measured response relative to a control, in per cent.

The target in experiment [1] is T1, PS:C4BP complex (Homo sapiens, UniProt P04003+P20851).
T1 construct: Purified human C4BP was obtained from 5 liters (1) of human citrated plasma; from tissue; host or cells: human citrated plasma (C4BP); protein S per Schwarz et al
T1 sequence (P04003 49-597): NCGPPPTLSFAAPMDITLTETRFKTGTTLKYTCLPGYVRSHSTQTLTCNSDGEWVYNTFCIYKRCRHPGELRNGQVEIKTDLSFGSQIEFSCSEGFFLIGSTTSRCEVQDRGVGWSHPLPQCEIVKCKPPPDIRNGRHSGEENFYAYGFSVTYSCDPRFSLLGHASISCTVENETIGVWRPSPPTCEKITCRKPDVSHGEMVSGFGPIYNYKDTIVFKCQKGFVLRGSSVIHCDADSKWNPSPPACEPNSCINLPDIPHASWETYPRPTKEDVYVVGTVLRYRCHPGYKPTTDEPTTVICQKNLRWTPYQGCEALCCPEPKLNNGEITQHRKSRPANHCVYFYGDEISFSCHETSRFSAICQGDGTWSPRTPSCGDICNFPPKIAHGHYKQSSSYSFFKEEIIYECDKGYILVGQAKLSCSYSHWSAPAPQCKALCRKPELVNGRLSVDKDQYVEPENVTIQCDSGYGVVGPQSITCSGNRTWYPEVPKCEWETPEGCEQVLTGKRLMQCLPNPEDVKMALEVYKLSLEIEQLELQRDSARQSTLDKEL
T1 sequence (P20851 18-252): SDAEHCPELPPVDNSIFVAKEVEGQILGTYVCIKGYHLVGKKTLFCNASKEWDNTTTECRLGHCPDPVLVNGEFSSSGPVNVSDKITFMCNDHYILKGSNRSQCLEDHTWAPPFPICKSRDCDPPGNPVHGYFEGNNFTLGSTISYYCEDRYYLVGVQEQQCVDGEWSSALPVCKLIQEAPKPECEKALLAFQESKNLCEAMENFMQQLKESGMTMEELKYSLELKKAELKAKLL
The experiment can be described thus: Fluid-phase peptide inhibition of PS binding to b-C4BP, detected on MAb S-7-coated plates. Particulars: b-C4BP 0.5 µg/ml, PS 1.0 µg/ml, peptide 0 - 500 µM. On the procedure:
An alternative approach was used to test the ability of the peptides, PSP-loop, PSP-424K and PSP-428K, in comparison with that seen with the PSP-12 peptide, in inhibiting the binding of PS to C4BP, the result of which was detected on monoclonal antibody-coated plates. For this assay, biotinylated-C4BP (b-C4BP), PS and PSP peptides were admixed together at the respective concentrations of 0.5 µg/ml, 1.0 µg/ml and at a range of 0 - 500 µM (V:V:V). The admixtures were maintained for 2 hours at room temperature on a fluid phase plate to allow the binding and/or inhibition thereof of PS to C4BP by the PS-derived peptides. After the maintenance period, 50 µl of the admixture were separately admixed to wells previously coated with 10 µg/ml of MAb S-7 (ATCC No. HB 80819). The admixtures were maintained for 1 hour at room temperature to allow for the binding of C4BP to MAb S-7-antibody-coated plates. The binding of biotinylated complexes to the antibody-coated plates was detected as described in Example 5Aii.

The target in experiment [2] is T1, PS:C4BP complex. Put plainly: Peptide Inhibition Assay: binding of b-PS to C4BP in solid phase. Particulars: peptide concentration of 800 µM; read-out: percent inhibition of PS:C4BP complex formation. On the procedure:
Each of the peptides produced as described in Example 1 and listed in Table 1 was analyzed for its ability to inhibit the binding of native protein S in liquid-phase to C4BP in solid-phase.
Microtiter wells of a 96 well plate were coated with 50 µl of 10 µg/ml purified C4BP in carbonate buffer (0.02 M Na2CO3, pH 9.0, 0.02% Na-Azide). After blocking with 10% BSA in TBS, 50 µl of different concentrations of peptides diluted in washing buffer (TBS, 0.2% BSA, 5mM CaCl, 0.02% Tween 20) were separately admixed to C4BP-coated wells. After 2 hours at room temperature, 50 µl of a solution of biotinylated protein S, were admixed to each well to form a second binding admixture having a final concentration of 2 µg/ml. The plate was agitated and the samples were incubated 1 hour at room temperature. The samples were discarded and the wells were washed 3 times with washing buffer. To each well, 50 µl of strepavidin-alkaline-phosphatase (1 µg/ml washing buffer) were admixed and allowed to incubate for 30 minutes at room temperature. The strepavidin-alkaline-phosphatase was then discarded and the wells were washed 6 times with washing buffer. The resulting optical densities of the reaction solutions were read as described before in Example 2C.
Results of the assay are reported as percent inhibition of C4BP binding. Percent of inhibition of C4BP binding is defined as: I = 100% - 100 x (deltaT /deltaC ) [formula] • where I is expressed as a percent; and • where 100% = delta/min of the amount of b-PS which specifically bound to C4BP-coated wells in the absence of any competing PS-peptide; and • where deltaT = the change in absorbance (405 nm) in the presence of competing PS-peptide; and • where deltaC = the change in absorbance (405 nm) in the absence of competing PS-peptide.

In experiment [3] the target is T1, PS:C4BP complex. Put plainly: Peptide inhibition of binding of b-C4BP to PS-coated wells. Particulars: b-C4BP 1 µg/ml, PS-coated wells, peptide 0 - 500 µM; for IC90: read-out: IC90; for IC50: read-out: half-maximal inhibitory concentration (IC50). On the procedure: An alternative approach was used to test the ability of the peptides, PSP-loop and PSP-428K, in comparison with that seen with the PSP-12 peptide, in inhibiting the binding of C4BP to PS. For this assay, the microtiter wells were coated with purified PS diluted to a concentration of 10 µg/ml in carbonate-coating buffer as described above. The wells were maintained to allow the PS to bind to the well walls. After the maintenance period, the wells were blocked also as described above. The selected PSP peptides were separately admixed at various concentrations ranging from 0 - 500 µM with biotinylated-C4BP (b-C4BP) at a concentration of 1 µg/ml. The admixtures were maintained on a fluid phase plate for 2 hours at room temperature to form peptide-C4BP complexes.
Fifty µl of the complexed admixtures were separately admixed to the prepared C4BP-coated wells and maintained for 1 hour at room temperature. Thereafter, the plate was washed and processed for developing as described above.

Experiment [4] has as its target T2, C4b binding protein (human, UniProt P04003 49-597; P20851 18-252).
T2 construct: mature; The beta chain is added from general knowledge; Biotinylated (b-C4BP) in some assays; also called C4BP; purified human C4BP
T2 sequence (looked up) 1: T1 sequence (P04003 49-597)
T2 sequence (looked up) 2: T1 sequence (P20851 18-252)
The experiment can be described thus: Competition ELISA, peptide preincubated with b-C4BP, PS-coated wells. For orientation: An ELISA detects its analyte on a solid surface through an enzyme-linked reagent.

Experiment [5] concerns the target T2, C4b binding protein. The experiment can be described thus: Competition ELISA, peptide 800 µM on coated C4BP, then b-PS.

As for `CC[C@H](C)[C@H](NC(=O)CNC(=O)[C@@H](N)CO)C(=O)N[C@@H](CCCCN)C(=O)N[C@@H](CCC(=O)O)C(=O)N[C@H](C(=O)N[C@H](C(=O)N[C@@H](CCC(N)=O)C(=O)N[C@@H](CCC(=O)O)C(=O)N[C@@H](CCCCN)C(=O)N[C@@H](CCC(N)=O)C(=O)N[C@@H](CC(N)=O)C(=O)N[C@@H](CCCCN)C(=O)N[C@@H](Cc1c[nH]cn1)C(=O)N[C@@H](CS)C(N)=O)[C@@H](C)CC)[C@@H](C)CC` [PSP-12] (H-SGIKEIIQEKQNKHC-NH2; N-terminus assumed), the IC50 at PS:C4BP complex [1] and on PS:C4BP complex [3] was ~50 µM each time. The IC90 on PS:C4BP complex [1] (read-out: IC90) and at PS:C4BP complex [3] was ~250 µM throughout. In addition, at PS:C4BP complex [2], the inhibition at 800 µM worked out at 80%.
Take `CC[C@H](C)[C@H](NC(=O)CNC(=O)[C@H](CO)NC(=O)[C@H](C)NC(=O)CNC(=O)[C@H](CCC(N)=O)NC(=O)[C@H](CCCCN)NC(=O)[C@H](CCSC)NC(=O)[C@H](CC(C)C)NC(=O)[C@@H](N)CC(N)=O)C(N)=O` [PSP-417] (H-NLMKQGASGI-NH2): on PS:C4BP complex [2], the inhibition at 800 µM is ~60%.
On the same count and under the same terms, in the case of `CC[C@H](C)[C@H](NC(=O)[C@H](CCC(=O)O)NC(=O)[C@@H](N)CCCCN)C(=O)N[C@H](C(=O)N[C@@H](CCC(N)=O)C(=O)N[C@@H](CCC(=O)O)C(=O)N[C@@H](CCCCN)C(=O)N[C@@H](CCC(N)=O)C(=O)N[C@@H](CC(N)=O)C(=O)N[C@@H](CCCCN)C(=O)N[C@@H](Cc1c[nH]cn1)C(=O)N[C@@H](CO)C(N)=O)[C@@H](C)CC` [PSP-428*, KEIIQEKQNKHS] (H-KEIIQEKQNKHS-NH2) it was ~60%; in that of `CC[C@H](C)[C@H](NC(=O)CNC(=O)[C@H](CO)NC(=O)[C@H](C)NC(=O)CNC(=O)[C@H](CCC(N)=O)NC(=O)[C@H](CCCCN)NC(=O)[C@H](CCSC)NC(=O)[C@H](CC(C)C)NC(=O)[C@@H](N)CC(N)=O)C(=O)N[C@@H](CCCCN)C(=O)N[C@@H](CCC(=O)O)C(N)=O` [PSP-417P] (H-NLMKQGASGIKE-NH2), ~60%; in that of `CC[C@H](C)[C@H](NC(=O)CN)C(=O)N[C@@H](CCCCN)C(=O)N[C@@H](CCC(=O)O)C(=O)N[C@H](C(=O)N[C@H](C(=O)N[C@@H](CCC(N)=O)C(N)=O)[C@@H](C)CC)[C@@H](C)CC` [PSP-424, GIKEIIQ] (H-GIKEIIQ-NH2), 40%.
Regarding `CC[C@H](C)[C@H](NC(=O)CNC(=O)[C@H](CO)NC(=O)[C@H](C)NC(=O)CNC(=O)[C@@H](N)CCC(N)=O)C(=O)N[C@@H](CCCCN)C(=O)N[C@@H](CCC(=O)O)C(N)=O` [PSP-417A] (H-QGASGIKE-NH2), the inhibition at 800 µM at PS:C4BP complex [2] was ~80%.
Take `CC[C@H](C)[C@H](NC(=O)CNC(=O)[C@@H](N)CO)C(=O)N[C@@H](CCCCN)C(=O)N[C@@H](CCC(=O)O)C(=O)N[C@H](C(=O)N[C@H](C(=O)N[C@@H](CCC(N)=O)C(=O)N[C@@H](CCCCN)C(=O)N[C@@H](CCCCN)C(=O)N[C@@H](CCC(N)=O)C(=O)N[C@@H](CC(N)=O)C(=O)N[C@@H](CCCCN)C(=O)N[C@@H](CS)C(N)=O)[C@@H](C)CC)[C@@H](C)CC` [PSP-428K, SGIKEIIQKKQNKC] (H-SGIKEIIQKKQNKC-NH2): on PS:C4BP complex [3], the IC90 is ~250 µM and the IC50 is ~50 µM.
As to `NCCCC[C@H](NC(=O)[C@H](CC(N)=O)NC(=O)[C@H](CCC(N)=O)NC(=O)[C@H](CCCCN)NC(=O)[C@H](CCC(=O)O)NC(=O)[C@@H](N)CCC(N)=O)C(=O)N[C@@H](Cc1c[nH]cn1)C(=O)N[C@@H](CO)C(N)=O` [PSP-430*] (H-QEKQNKHS-NH2), on PS:C4BP complex [2], the inhibition at 800 µM was ~80%.
For the molecule SGIKEIIQEKQNKHC-NH2 (also: biotinylated form b-PSP-12 also used, also called b-PSP-12 (biotinylated)) [PSP-12], in the experiment with C4b binding protein [4], the IC50 is ~50 µM and the IC90 is ~250 µM.
In the experiment with C4b binding protein [5], NLMKQGASGI-NH2 [PSP-417] came in with a % inhibition of PS:C4BP complex formation of 60%.
On the same count and under the same terms, the result for QGASGIKE-NH2 [PSP-417A] reads 80%; that for GIKEIIQ-NH2 [PSP-424], 40%; that for NLMKQGASGIKE-NH2 [PSP-417P], 60%.
On the same count and under the same terms, the result for QEKQNKHS-NH2 [PSP-430*] reads 80%; that for KEIIQEKQNKHS-NH2 [PSP-428*], 60%.

B1: PSP-428K* (peptide)
peptide: SGIKEIIQKKQNKC-NH2
notes: protein S 420-432,434 with a substitution
As for B1, the IC90 in the experiment with C4b binding protein [4] is ~250 µM.
